Counter-ions that a name gives are not always drawn. Like-named read-outs stand apart in the source and are kept apart here. One block for each compound: values may come before it.
Legend:
Type in all cases: physicochemical
[1] = Guanfacine solubility at pH 7.0 and 8.0; settings: for solubility at 1 h: sodium phosphate buffer, aqueous buffer, 0.22 μm filtered, HPLC, read-out: concentration of filtered sample (solubility)
Experimental: Stock solutions of acetic acid and sodium acetate were used for making another pH 4.0 sample and a pH 5.0 sample. For the pH 4.0 sample, 920 μL of acetic acid was added to 80 μL of sodium acetate and then the final solution was prepared as described above to achieve a 5 mM buffer concentration. For the pH 5.0 sample, 700 μL of acetic acid was added to 1,300 μL of sodium acetate and 1.0 mLs of that buffer stock solution was added to make a final buffer concentration of 20 mM. With the exception of the buffer concentration, the pH 5.0 sample solution was completed as described above. Another sample solution was also made at 20 mM sodium acetate, pH 5.0, except the solvent was sparged with nitrogen and the head space of the vial was purged with nitrogen just prior to stoppering in order to remove air from the sample. For the pH 6.0 sample, a stock solution with 1,840 μL of 0.5 M sodium phosphate monobasic and 160 μL of 0.5 M sodium phosphate dibasic was made that was then diluted to 10 mM sodium phosphate by adding 1.0 mL to a final of 50 grams of solution. The solution was then completed as described previously.
Follow up testing was done to confirm that Guanfacine solubility was lower at pH 7.0 and 8.0 compared to the other samples made at pH levels≤6.0. For the pH 7.0 sample, a stock solution of 0.192 mL of 0.5 M sodium phosphate monobasic and 0.208 mLs of 0.5 M sodium phosphate dibasic was added to a glass tube followed by ~8.0 mLs of WFI and ~11.5 mg of Guanfacine-HCl. The solution was then adjusted to pH 7.0 with a solution of 0.2 N NaOH and adjusted to a volume of 10 mLs with WFI. For the pH 8.0 sample, a stock solution of 0.028 mL of 0.5 M sodium phosphate monobasic and 0.372 mLs of 0.5 M sodium phosphate dibasic was added to a glass tube followed by ~8.0 mLs of WFI and 11.48 mg of Guanfacine-HCl. The solution was then adjusted to pH 8.0 with a solution of 0.2 N NaOH and adjusted to a volume of 10 mLs with WFI. […] After 1 hour of sonication both samples were then filtered through a 0.22 μm PVDF filter and analyzed by HPLC. The concentration of the filtered pH 7.0 sample was ~0.35 mg/mL and the concentration of the filtered pH 8.0 sample was ~0.12 mg/mL. Therefore Guanfacine-HCl was less soluble at pH 7.0 and 8.0 compared to pH levels of 6.0 and lower.

[2] = Chemical stability of Guanfacine solutions in WFI at room temperature (vials, IV bags; HPLC); settings: for degraded at 72 h: 0.5 mg/mL
Experimental: Guanfacine HCl powder (Laxai Avanti, Lot CPL-01-2013-014-033) was dissolved in WFI at a concentration of 0.5 mg/mL, passed through a 0.22 μm PVDF membrane in a biosafety cabinet, and then filled into 20 mL glass vials (particle free), or 150 ml polyolefin IV bags. The vials and IV bags were stored at room temperature conditions. The Guanfacine solutions in the vials and IV bags were at pH 5.7 and 5.0, respectively. After 72 hours at room temperature the Guanfacine solution in the vials formed a degradation product at 0.23% and the Guanfacine solution in the IV bags formed a degradation product at 0.16%.
Additionally, Guanfacine HCl (Laxai Avanti, Lot CPL-01-2013-014-033) was dissolved in WFI to a final concentration of 1.14 mg/mL, pH 4.5, passed through a 0.22 μm PVDF membrane in a biosafety cabinet, and then filled into glass vials. The glass vials were stored at room temperature conditions.

[3] = Compatibility of Guanfacine with Ropivacaine (appearance, pH, particulate matter); settings: for Particulate Matter 10 μm / Particulate Matter 25 μm: Guanfacine only in WFI, filtered, before mixing; for concentration of Guanfacine freebase in the WFI control: HPLC
Experimental: The compatibility of 1.0 mg/mL and 0.1 mg/mL solutions of Guanfacine diluted into 30 mL Ropivacaine (USP 5 mg/mL Hospira, Lot-48-031-DK) was tested. A 0.1 and 1.0 mg/mL solution of Guanfacine free base in water for injection (WFI) was prepared. For every 1.148 mg of Guanfacine-HCl there is 1 mg of Guanfacine free base. For the 0.1 mg/mL solution, 57.4 mg of Guanfacine-HCl (lot #CPL-01-2013-014-033 Laxai Avanti) was dissolved in 400 mL of WFI (Hospira 1000 mL Bag, Lot 51-114-JT). Once fully dissolved, the solution was transferred to a 500 mL volumetric flask and q.s. to volume. For the 1.0 mg/mL solution, 114.8 mg of Guanfacine-HCl was dissolved in 80 mL of WFI. Once fully dissolved, the solution was transferred to a 100 mL volumetric flask and q.s. to volume.
Two glass vials were rinsed with WFI three times and emptied. The vials were rinsed with filtered Guanfacine solution three times, 5 mLs at a time. Approximately 35 mLs of the Guanfacine solutions were filtered into the vials using a Millex GV Sterile PVDF 0.22 μm syringe filter. The particulate content in the filtered Guanfacine solutions was determined prior to adding to the Ropivacaine vial using an APSS Liquiliaz particle counter. 1.2 mLs of filtered Guanfacine solutions at 0.1 or 1.0 mg/mL were injected into three separate vials containing Ropivacaine for each concentration (1:25 dilution of Guanfacine:Ropivacaine). The concentration of Guanfacine freebase in the WFI control was 0.10 mg/mL and 1.05 mg/mL, as determined by HPLC. The compatibility solutions were not able to be analyzed by the HPLC assay for Guanfacine because Guanfacine and Ropivacaine have very similar elution times and only the Ropivacaine peak could be seen on the chromatogram.
The appearance, pH, and particulate content for one vial at each concentration at time zero, 4 to 6 hours, and 24 hours was assessed and the results are reported in Table 1, below.

dissolution at 1 mg/mL ([1]; pH 7.0, 1 mg/mL): did not completely dissolve | Area % of guanfacine peak (peak 1) ([2]; 0.5 mg/mL in WFI in IV bags, pH 5.0, time zero, RRT 1.00): 99.94% | Area % of peak 2 (degradation product) ([2]; 0.5 mg/mL in WFI in IV bags, pH 5.0, time zero, RRT 8.77): 0.06% | Area % of peak 2 ([2]; 0.5 mg/mL in WFI in vials, pH 5.7, 24 hours, RRT 1.31): 0.02% | Area % of peak 2 ([2]; 0.5 mg/mL in WFI in vials, pH 5.7, 72 hours, RRT 1.32): 0.01% | Area % of peak 3 ([2]; 0.5 mg/mL in WFI in vials, pH 5.7, 72 hours, RRT 4.31): 0.01% | Area % of guanfacine peak (peak 1) ([2]; 0.5 mg/mL in WFI in vials, pH 5.7, time zero, RRT 1.00): 99.94% | Area % of peak 2 ([2]; 0.5 mg/mL in WFI in vials, pH 5.7, time zero, RRT 1.31): 0.01% | Area % of peak 4 (degradation product) ([2]; 0.5 mg/mL in WFI in vials, pH 5.7, time zero, RRT 8.58): 0.05% | remaining at 24 h ([2]; water, 0.5 mg/mL in WFI in IV bags, pH 5.0, 24 hours, RRT 1.00, read-out: Area % of guanfacine peak (peak 1)): 99.8% | degraded at 24 h ([2]; water, 0.5 mg/mL in WFI in IV bags, pH 5.0, 24 hours, RRT 8.79, read-out: Area % of peak 2 (degradation product)): 0.15% | remaining at 72 h ([2]; water, 0.5 mg/mL in WFI in IV bags, pH 5.0, 72 hours, RRT 1.00, read-out: Area % of guanfacine peak (peak 1)): 99.8% | remaining at 24 h ([2]; water, 0.5 mg/mL in WFI in vials, pH 5.7, 24 hours, RRT 1.00, read-out: Area % of guanfacine peak (peak 1)): 99.9% | degraded at 24 h ([2]; water, 0.5 mg/mL in WFI in vials, pH 5.7, 24 hours, RRT 8.58, read-out: Area % of peak 4 (degradation product)): 0.1% | remaining at 72 h ([2]; water, 0.5 mg/mL in WFI in vials, pH 5.7, 72 hours, RRT 1.00, read-out: Area % of guanfacine peak (peak 1)): 99.8% | degraded at 72 h ([2]; water, IV bags, pH 5.0, 72 hours at room temperature, read-out: degradation product formed): 0.16% | degraded at 168 h ([2]; water, glass vials, pH 4.5, one week at room temperature, 1.14 mg/mL, read-out: degradation product formed): 0.26% | degraded at 72 h ([2]; water, vials, pH 5.7, 72 hours at room temperature, read-out: degradation product formed): 0.23% | compatibility with Ropivacaine ([3]; 1.0 mg/mL in WFI, 1:25 dilution of Guanfacine to Ropivacaine): compatible with Ropivacaine | Particulate Matter 10 μm ([3]; 0.1 mg/mL): 0 Particles per mL | Particulate Matter 25 μm ([3]; 0.1 mg/mL): 0 Particles per mL | Particulate Matter 10 μm ([3]; 1 mg/mL): 6 Particles per mL | Particulate Matter 25 μm ([3]; 1 mg/mL): 0 Particles per mL | concentration of Guanfacine freebase in the WFI control ([3]; nominal 0.1 mg/mL): 100 µg/mL | concentration of Guanfacine freebase in the WFI control ([3]; nominal 1.0 mg/mL): 1050 µg/mL
SMILES: N=C(N)NC(=O)Cc1c(Cl)cccc1Cl [Guanfacine]

solubility compared to pH levels of 6.0 and lower ([1]; pH 7.0 and 8.0): less soluble | appearance of solution ([1]; pH 7.0 and pH 8.0 samples (both), after 1 hour of sonication): cloudy and contained precipitate | solubility at 1 h ([1]; pH 7.0, sodium phosphate, after 1 hour of sonication): ~350 µg/mL | solubility at 1 h ([1]; pH 8.0, sodium phosphate, after 1 hour of sonication): ~120 µg/mL | Area % of peak 2 ([2]; 1.14 mg/mL Guanfacine-HCl in WFI, pH 4.5, glass vials, 1 week, RRT 1.44): 0.02% | Area % of peak 3 (degradation product) ([2]; 1.14 mg/mL Guanfacine-HCl in WFI, pH 4.5, glass vials, 1 week, RRT 8.72, 10080 min): 0.26% | Area % of guanfacine peak (peak 1) ([2]; 1.14 mg/mL Guanfacine-HCl in WFI, pH 4.5, glass vials, time zero, RRT 1): 99.98% | Area % of peak 2 ([2]; 1.14 mg/mL Guanfacine-HCl in WFI, pH 4.5, glass vials, time zero, RRT 1.45): 0.02% | remaining at 168 h ([2]; water, 1.14 mg/mL Guanfacine-HCl in WFI, pH 4.5, glass vials, 1 week, RRT 1, read-out: Area % of guanfacine peak (peak 1)): 99.7%
SMILES: N=C(N)NC(=O)Cc1c(Cl)cccc1Cl [Guanfacine-HCl, N-amidino-2-(2,6-dichlorophenyl) acetamide monohydrochloride]
